Experimental data: patent publication US11702440B2, “Pharmaceutical polymorphs of Molnupiravir” (OPTIMUS DRUGS (P) LTD, priority 2021, dated 2023)

Legend:
[1] = tested on: coronaviruses including SARS, MERS and SARS-CoV-2; conditions: cited from earlier work
[2] = First-in-human phase 1 single and multiple ascending dose pharmacokinetics in healthy volunteers; type: in vivo
Description: Single and multiple doses of Molnupiravir were evaluated in this first-in-human, phase 1, […] randomized, double-blind, placebo-controlled study in healthy volunteers, which included […] evaluation of the effect of food on pharmacokinetics. Eligible subjects were randomized in a 3:1 ratio to either study drug or placebo in the single- and multiple-ascending-dose parts of the study. Each cohort comprised 8 subjects, with single oral doses of 50 to 1600 mg administered in the single-ascending-dose part and twice-daily (BID) […] doses of 50 to 800 mg administered for 5.5 days in the multiple-ascending-dose part. Subjects were followed for 14 days following completion of dosing for assessments of safety, tolerability, and pharmacokinetics. Subjects in the food-effect evaluation were randomized in a 1:1 ratio to either 200 mg Molnupiravir in the fed state followed by 200 mg Molnupiravir in the fasted state, or vice versa, with a 14-day washout period between doses. A capsule formulation was used in all parts of the study, with the exception of single ascending doses ≤800 mg, where an oral solution formulation was used.

SARS-CoV-2 = conditions: found in March 2020; cited from earlier work
[3] = In-vitro dissolution study of Molnupiravir Capsules; type: physicochemical; conditions: 900 ml 0.1 N HCl, paddle 50 RPM
Description: Dissolution study of test product Molnupiravir Capsules 200 mg, 400 mg 800 mg was performed in order to understand % dissolution in release dissolution media. The dissolution media used for the test is 900 ml of 0.1 NHCl at 50 RPM with paddle.

SMILES: CC(C)C(=O)OC[C@H]1O[C@@H](n2ccc(NO)nc2=O)[C@H](O)[C@@H]1O [Molnupiravir]
- activity against coronaviruses [1]: Activity has also been demonstrated
- mean AUCinf increase with dose ([2]; Day 1, power model, oral, lower bound of 90% CI slightly above unity): approximately dose-proportional
- mean Cmax increase with dose ([2]; Day 1, power model, oral, upper bound of 90% CI slightly below unity): approximately dose-proportional
- mean Cmax increase with dose ([2]; Day 6, BID oral dosing, 90% CI containing unity): dose proportional
- mean AUCτ increase with dose ([2]; Day 6, BID oral dosing, lower bound of 90% CI slightly above unity): approximately dose-proportional
- activity against SARS-CoV-2 (SARS-CoV-2): active
- % Drug release of Molnupiravir ([3]; 200 mg capsules, 5 min): 85%
- % Drug release of Molnupiravir ([3]; 200 mg capsules, 10 min): 97%
- % Drug release of Molnupiravir ([3]; 200 mg capsules, 15 min): 97%
- % Drug release of Molnupiravir ([3]; 200 mg capsules, 20 min): 102%
- % Drug release of Molnupiravir ([3]; 200 mg capsules, 30 min): 103%
- % Drug release of Molnupiravir ([3]; 200 mg capsules, 45 min): 102%
- % Drug release of Molnupiravir ([3]; 400 mg capsules, 5 min): 86%
- % Drug release of Molnupiravir ([3]; 400 mg capsules, 10 min): 90%
- % Drug release of Molnupiravir ([3]; 400 mg capsules, 15 min): 93%
- % Drug release of Molnupiravir ([3]; 400 mg capsules, 20 min): 97%
- % Drug release of Molnupiravir ([3]; 400 mg capsules, 30 min): 97%
- % Drug release of Molnupiravir ([3]; 400 mg capsules, 45 min): 97%
- % Drug release of Molnupiravir ([3]; 800 mg capsules, 5 min): 84%
- % Drug release of Molnupiravir ([3]; 800 mg capsules, 10 min): 95%
- % Drug release of Molnupiravir ([3]; 800 mg capsules, 15 min): 97%
- % Drug release of Molnupiravir ([3]; 800 mg capsules, 20 min): 99%
- % Drug release of Molnupiravir ([3]; 800 mg capsules, 30 min): 101%
- % Drug release of Molnupiravir ([3]; 800 mg capsules, 45 min): 101%
